Measurements as given in patent US20110166161A1, “HETEROCYCLIC CARBOXAMIDE COMPOUNDS” (Astellas Pharma Inc., priority 2008, published 2011).
Counter-ions that a name gives are not always drawn.

What was measured:
Male Wistar rats [1] = test: Effects on hindlimb blood flow (laser Doppler); type: in vivo; conditions: po; 10 mg/kg p.o.; rat hindlimb; read-out: % of increase of blood flow
Description: As one of the study to clarify the usefulness of the compounds of the present invention for peripheral arterial disease, we conducted a study to evaluate the effects of the compounds on hindlimb blood flow in rats.
Male Wistar rats were anesthetized by intraperitoneal pentobarbital injection (Kanto chemical, Japan) after oral administration of compounds. Rats were placed on a heating plate for subsequent hindlimb blood flow analysis. We measured hindlimb blood flow using a laser Doppler blood flow meter (PeriScan System, Stockholm, Sweden). After the laser Doppler images were recorded, the average perfusion values of both limbs were calculated, and evaluated the effects of compounds on hindlimb blood flow. Each experiment was performed in about 4 animals.

Male Wistar rats [2] = test: Inhibitory effects on phenylephrine-induced elevation of urethral pressure; type: in vivo; conditions: Rattus norvegicus, iv; phenylephrine 30 μg/kg i.v.; anesthetized rats; read-out: Inhibition of elevation in urethral pressure ED30
Description: To evaluate the usefulness of the compounds of the present invention for urinary dysfunction associated with benign prostatic hyperplasia, we investigated the inhibitory effects of the intravenous administration of the compounds on phenylephrine-induced elevation of the urethral pressure in rats.
Male Wistar rats were anesthetized with urethane (SIGMA, USA). After midline abdominal incision, catheter to measure the urethral pressure (3.5 Fr, Millar, USA) was inserted into the urethra from top of the bladder. After confirming the Phenylephrine (30 μg/kg i.v.)-induced elevation of the urethral pressure, compounds were administered intravenously in increasing doses. Every 5 min after administration of compounds, Phenylephrine (30 μg/kg i.v.) was injected, and the inhibitory effects of compounds on phenylephrine-induced elevation of urethral pressure were evaluated. Each experiment was performed in about 4 animals.

Male SD rats = test: Changes in hindlimb weight distribution after intra-articular monosodium iodoacetate (MIA) injection; type: in vivo; conditions: Rattus norvegicus, 504 h; oral administration; MIA-injected rats, three weeks after injection
Description: As intra-articular injection of monosodium iodoacetate (MIA) induced human osteoarthritis-like histopathological changes in knee joint, this model would be very useful for the study of human osteoarthritis. Recently, it is reported the clinical scores of the joint pain were closely correlated to the grade of histological findings (J Vet Med Sci 65, 1195, 2003) and this model may be useful for estimation of therapeutic effects of pain with osteoarthritis.
Male SD rats were anesthetized with halothane (Takeda, Japan) and given single intra-articular injection of 1 mg of monosodium iodoacetate (MIA; Sigma, St. Louis, USA) through the infrapatellar ligament of the right knee. MIA was dissolved with physiologic saline and administered in a volume of 50 μl using a 27-gauge, 0.5-inch needle. Three weeks after the injection, hindlimb weight distribution was determined using an incapacitance tester (Linton Instrumentation, Norfork, UK). Rats were allowed to acclimate to the testing apparatus and when stationary, readings were taken over a 5 s period. […] Each group in each experiment was performed in about 8 animals.

human ROCK I = human ROCK I (Homo sapiens, UniProt Q13464); test: ROCK enzyme inhibition assay; type: biochemical
Description: ROCK enzyme inhibitory activity of the compounds of the present invention has been assayed as follow. An aqueous solution of Rho kinase substrate MYTP was added to 96-well plate. Following incubation for overnight at 4° C., the plate was blocked by using blocking buffer containing BSA. To the plate was added reaction buffer containing each concentration of compound, suitable concentration of human ROCK I (Caruna Biosciences), ATP, β-glycerol phosphate, EGTA, sodium orthovanadate and DTT, and then the plate was incubated for 1 hour. After washing the plate by washing buffer, anti-phosphothreonin antibody was added to the plate, and then the plate was incubated for 1 hour. After washing the plate by washing buffer again, HRP-conjugated anti-phosphorylated protein antibody was added to the plate, and then the plate was incubated for 1 hour. After washing the plate by washing buffer again, colorimetric substrate TMB microwell peroxidase substrate was added to the plate, and then the plate was incubated for appropriate time. After incubation, sulfuric acid was added to the plate to stop the reaction, and then absorbance (450 nm) was measured by using spectromether. Based, on the absorbance for each compound, the data is fit using Prism software to obtain a IC50 value.

beagle dogs = test: In vivo eye pressure lowering effect (IOP), beagle dogs; conditions: beagle dog, 10 mM applied topically
Description: (§1) The intraocular pressure (IOP) was determined in beagle dogs and rats with tonometer (TONO-PEN™, MENTOR and TonoLab™, M. E. Technica), specially calibrated for the eye of the particular species. In beagle dogs, the cornea was anesthetized with oxibuprocain before each IOP measurement.

female C57Bl/6 mice = test: Bleomycin-induced lung fibrosis model, hydroxyproline content of the lung; type: in vivo, mouse; conditions: 1 mg/kg orally once a day from day 1 to day 35; lung removed day 36
Description: To induce pulmonary fibrosis, ten mg/kg bleomycin (Nipponkayaku Industries Ltd, Tokyo, Japan) was intraperitoneally injected into female C57Bl/6 mice (9 weeks old, Charles River Laboratories Japan, Inc.) once a day from day 1 to day 10. Bleomycin was dissolved in saline and control mice were intraperitoneally injected with saline. The compound or vehicle was orally administered to the mice once a day from day 1 to day 35. On day 36, mice were sacrificed under anesthesia of pentobarbital and the lung was surgically removed. Hydroxyproline content of the lung was assayed according to the method of Woessner JF (1).

rats = test: In vivo eye pressure lowering effect (IOP), rats; conditions: rat, 10 mM applied topically
Description: as §1

Chain of human ROCK I (Q13464 whole entry): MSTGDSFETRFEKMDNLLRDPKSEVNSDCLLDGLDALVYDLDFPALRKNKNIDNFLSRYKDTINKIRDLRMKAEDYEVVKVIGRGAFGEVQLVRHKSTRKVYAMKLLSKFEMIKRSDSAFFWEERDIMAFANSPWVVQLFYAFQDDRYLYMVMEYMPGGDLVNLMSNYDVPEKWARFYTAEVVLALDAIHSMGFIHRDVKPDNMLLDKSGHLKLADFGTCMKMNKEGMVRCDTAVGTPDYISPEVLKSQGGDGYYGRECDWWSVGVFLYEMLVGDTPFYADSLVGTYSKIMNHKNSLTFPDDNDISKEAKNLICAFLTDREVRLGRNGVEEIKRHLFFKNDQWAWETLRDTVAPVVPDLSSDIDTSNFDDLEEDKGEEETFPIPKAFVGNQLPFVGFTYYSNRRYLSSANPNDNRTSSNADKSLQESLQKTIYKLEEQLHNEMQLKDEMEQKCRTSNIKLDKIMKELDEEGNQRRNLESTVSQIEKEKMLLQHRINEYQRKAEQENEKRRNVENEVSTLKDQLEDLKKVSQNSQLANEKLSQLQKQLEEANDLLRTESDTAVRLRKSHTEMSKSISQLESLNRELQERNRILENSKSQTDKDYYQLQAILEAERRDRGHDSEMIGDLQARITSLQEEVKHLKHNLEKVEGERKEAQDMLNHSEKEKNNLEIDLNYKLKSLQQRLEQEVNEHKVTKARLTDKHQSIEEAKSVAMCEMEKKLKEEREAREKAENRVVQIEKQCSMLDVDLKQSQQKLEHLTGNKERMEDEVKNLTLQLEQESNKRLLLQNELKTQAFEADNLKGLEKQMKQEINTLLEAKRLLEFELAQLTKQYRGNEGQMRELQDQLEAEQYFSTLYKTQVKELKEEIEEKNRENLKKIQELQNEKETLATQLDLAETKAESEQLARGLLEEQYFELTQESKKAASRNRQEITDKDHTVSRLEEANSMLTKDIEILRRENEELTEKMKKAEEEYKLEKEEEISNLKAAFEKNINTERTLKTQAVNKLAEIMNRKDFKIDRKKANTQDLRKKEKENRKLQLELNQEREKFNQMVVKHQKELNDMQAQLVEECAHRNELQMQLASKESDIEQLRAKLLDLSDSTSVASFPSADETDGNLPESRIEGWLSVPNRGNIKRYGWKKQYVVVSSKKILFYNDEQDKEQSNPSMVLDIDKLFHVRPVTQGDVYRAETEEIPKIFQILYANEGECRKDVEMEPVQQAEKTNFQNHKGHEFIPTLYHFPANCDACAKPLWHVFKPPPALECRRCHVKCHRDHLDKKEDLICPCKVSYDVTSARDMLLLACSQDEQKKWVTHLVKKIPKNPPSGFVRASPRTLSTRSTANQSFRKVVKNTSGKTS

Q: For `COc1nc(N[C@H]2CC[C@H](N)CC2)ccc1C(N)=O` [Example 1, 6-[(trans-4-aminocyclohexyl)amino]-2-methoxynicotinamide dihydrochloride], which change in vivo at 10 mg/kg (Male Wistar rats [1]) is on record?
A: The change in vivo at 10 mg/kg was > 130%.

Q: And the ED30 (Male Wistar rats [2])?
A: The ED30 was < 0.5 mg/kg.

Q: What about the ED50 (Male SD rats) of the same compound?
A: Its ED50 is < 1 mg/kg.

Q: And the IC50 (human ROCK I)?
A: The IC50 was 2 nM.

Q: With `COc1nc(N[C@H]2CC[C@H](N)CC2)c(F)cc1C(N)=O` [Example 2, 6-[(trans-4-aminocyclohexyl)amino]-5-fluoro-2-methoxynicotinamide dihydrochloride] as the compound, how does the change in vivo at 10 mg/kg (Male Wistar rats [1]) read?
A: The change in vivo at 10 mg/kg was > 130%.

Q: What about the ED30 (Male Wistar rats [2]) of the same compound?
A: Its ED30 is < 0.5 mg/kg.

Q: What about the ED50 (Male SD rats) of the same compound?
A: Its ED50 is < 1 mg/kg.

Q: What about the IC50 (human ROCK I) of the same compound?
A: The IC50 was 2 nM.

Q: With `COc1nc(N[C@H]2CC[C@H](N)CC2)c(F)cc1C(N)=O` [Example 3, 6-[(trans-4-aminocyclohexyl)amino]-5-fluoro-2-methoxynicotinamide] as the compound, how does the “IOP change in animals after 4 hours” value (beagle dogs) read?
A: The value was −16% reduced in beagle dog.

Q: What about the “reduction of hydroxyproline content of the lung” value (female C57Bl/6 mice) of the same compound?
A: Its value is 66%.

Q: Which results are given for `COc1nc(N[C@H]2CC[C@H](N)CC2)c(Cl)cc1C(N)=O` [Example 4, 6-[(trans-4-aminocyclohexyl)amino]-5-chloro-2-methoxynicotinamide]?
A: change in vivo at 10 mg/kg (Male Wistar rats [1]): > 130%; ED30 (Male Wistar rats [2]): < 0.5 mg/kg; ED50 (Male SD rats): < 1 mg/kg; IC50 (human ROCK I): 5 nM

Q: What does the source list for `COc1nc(N[C@H]2CC[C@H](N)CC2)c(Br)cc1C(N)=O` [Example 5, 6-[(trans-4-aminocyclohexyl)amino]-5-bromo-2-methoxynicotinamide]?
A: change in vivo at 10 mg/kg (Male Wistar rats [1]): > 130%; ED30 (Male Wistar rats [2]): < 0.5 mg/kg; ED50 (Male SD rats): < 3 mg/kg; IC50 (human ROCK I): 39 nM

Q: Which change in vivo at 10 mg/kg (Male Wistar rats [1]) does the source give for `CCOc1nc(N[C@H]2CC[C@H](N)CC2)ccc1C(N)=O` [Example 6, 6-[(trans-4-aminocyclohexyl)amino]-2-ethoxynicotinamide dihydrochloride] here?
A: Its change in vivo at 10 mg/kg is > 130%.

Q: What about the ED30 (Male Wistar rats [2]) of the same compound?
A: Its ED30 is < 0.5 mg/kg.

Q: And the IC50 (human ROCK I)?
A: The IC50 was 10 nM.

Q: `CCOc1nc(N[C@H]2CC[C@H](N)CC2)c(F)cc1C(N)=O` [Example 7, 6-[(trans-4-aminocyclohexyl)amino]-2-ethoxy-5-fluoronicotinamide dihydrochloride] was tested. Which change in vivo at 10 mg/kg (Male Wistar rats [1]) did it give?
A: Its change in vivo at 10 mg/kg is > 130%.

Q: What about the ED30 (Male Wistar rats [2]) of the same compound?
A: The ED30 was < 0.5 mg/kg.

Q: And the IC50 (human ROCK I)?
A: The IC50 was 9 nM.

Q: `CCOc1nc(N[C@H]2CC[C@H](N)CC2)c(Br)cc1C(N)=O` [Example 9, 6-[(trans-4-aminocyclohexyl)amino]-5-bromo-2-ethoxynicotinamide] was tested. Which “IOP change in animals after 4 hours” value (rats) did it give?
A: Its value is −30% reduced in rat.

Q: With `CCOc1nc(N[C@H]2CC[C@H](N)CC2)c(I)cc1C(N)=O` [Example 10, 6-[(trans-4-aminocyclohexyl)amino]-5-iodo-2-ethoxynicotinamide] as the compound, how does the “IOP change in animals after 4 hours” value (rats) read?
A: The value was −26% reduced in rat.

Q: Which results are given for `COc1nc(N[C@H]2CC[C@H](NS(C)(=O)=O)CC2)c(F)cc1C(N)=O` [Example 28, 6-[(trans-4-methanesulfonylaminocyclohexyl)amino]-5-fluoro-2-methoxynicotinamide]?
A: change in vivo at 10 mg/kg (Male Wistar rats [1]): > 130%; ED30 (Male Wistar rats [2]): < 0.5 mg/kg; IC50 (human ROCK I): 58 nM

Q: Which results are given for `COc1nc(N[C@H]2CC[C@H](NC3CCS(=O)(=O)CC3)CC2)c(F)cc1C(N)=O` [Example 30, 6-({trans-4-[(1,1-dioxidotetrahydro-2H-thiopyran-4-yl)amino]cyclohexyl}amino)-5-fluoro-2-methoxynicotinamide]?
A: change in vivo at 10 mg/kg (Male Wistar rats [1]): > 130%; ED30 (Male Wistar rats [2]): < 0.5 mg/kg; IC50 (human ROCK I): 7 nM
